Assay results from PubChem BioAssay AID1259407 (Chemical Carcinogenesis Research Information System (CCRIS), 2018).
The source made the active and inactive calls. How the calls were made is not given here.

Tested on: CCRIS mutagenicity, Ames/micronucleus/aberration tests
Assay: CCRIS mutagenicity studies
[1] = Test System: AMES SALMONELLA TYPHIMURIUM, Strain/Indicator: TA98, Metabolic Activation: NONE, Method: PREINCUBATION
[2] = Test System: AMES SALMONELLA TYPHIMURIUM, Strain/Indicator: TA100, Metabolic Activation: NONE, Method: PREINCUBATION

CC(=O)CC(=O)Nc1ccccc1C
mutagenic call (Test System: AMES SALMONELLA TYPHIMURIUM, Strain/Indicator: TA102, Metabolic Activation: NONE, Method: STANDARD PLATE): inactive; negative
mutagenic call (Test System: AMES SALMONELLA TYPHIMURIUM, Strain/Indicator: TA2638, Metabolic Activation: NONE, Method: STANDARD PLATE): inactive; negative
mutagenic call (Test System: Ames Salmonella typhimurium, Strain/Indicator: TA98, Metabolic Activation: None, Method: Preincubation): inactive; negative
mutagenic call (Test System: Ames Salmonella typhimurium, Strain/Indicator: TA98, Metabolic Activation: Rat, Liver, S9, Sodium phenobarbital and 5,6-benzoflavone (10%), Method: Preincubation): inactive; negative
mutagenic call (Test System: Ames Salmonella typhimurium, Strain/Indicator: TA100, Metabolic Activation: None, Method: Preincubation): inactive; negative
mutagenic call (Test System: Ames Salmonella typhimurium, Strain/Indicator: TA100, Metabolic Activation: Rat, Liver, S9, Sodium phenobarbital and 5,6-benzoflavone (10%), Method: Preincubation): inactive; negative
mutagenic call (Test System: Ames Salmonella typhimurium, Strain/Indicator: TA1535, Metabolic Activation: None, Method: Preincubation): inactive; negative
mutagenic call (Test System: Ames Salmonella typhimurium, Strain/Indicator: TA1535, Metabolic Activation: Rat, Liver, S9, Sodium phenobarbital and 5,6-benzoflavone (10%), Method: Preincubation): inactive; negative
mutagenic call (Test System: Ames Salmonella typhimurium, Strain/Indicator: TA1537, Metabolic Activation: None, Method: Preincubation): inactive; negative
mutagenic call (Test System: Ames Salmonella typhimurium, Strain/Indicator: TA1537, Metabolic Activation: Rat, Liver, S9, Sodium phenobarbital and 5,6-benzoflavone (10%), Method: Preincubation): inactive; negative
mutagenic call (Test System: E. COLI, Strain/Indicator: WP2 (PKM101), Metabolic Activation: NONE, Method: STANDARD PLATE): inactive; negative
mutagenic call (Test System: E. COLI, Strain/Indicator: WP2 UVRA (PKM101), Metabolic Activation: NONE, Method: STANDARD PLATE): inactive; negative
mutagenic call (Test System: E. coli, Strain/Indicator: WP2uvrA/pKM101, Metabolic Activation: None, Method: Preincubation): inactive; negative
mutagenic call (Test System: E. coli, Strain/Indicator: WP2uvrA/pKM101, Metabolic Activation: Rat, Liver, S9, Sodium phenobarbital and 5,6-benzoflavone (10%), Method: Preincubation): inactive; negative

O=[N+]([O-])c1ccc2ncccc2c1
mutagenic call [1]: active; positive
mutagenic call (Test System: AMES SALMONELLA TYPHIMURIUM, Strain/Indicator: TA98, Metabolic Activation: RAT, LIVER, S-9, Method: PREINCUBATION): active; positive
mutagenic call [2]: active; positive
mutagenic call (Test System: AMES SALMONELLA TYPHIMURIUM, Strain/Indicator: TA100, Metabolic Activation: RAT, LIVER, S-9, Method: PREINCUBATION): active; positive

Cc1cc2c(nc(N)n2C)c2nc(-c3ccccc3)cnc12
mutagenic call (Test System: AMES SALMONELLA TYPHIMURIUM, Strain/Indicator: TA98, Metabolic Activation: RAT, LIVER, S-9, AROCLOR 1254, Method: STANDARD PLATE): active; positive

CBr
mutagenic call (Test System: AMES SALMONELLA TYPHIMURIUM, Strain/Indicator: TA98, Metabolic Activation: HAMSTER, LIVER, S-9, AROCLOR 1254 (30%), Method: DESICCATOR): inactive; negative
mutagenic call (Test System: AMES SALMONELLA TYPHIMURIUM, Strain/Indicator: TA98, Metabolic Activation: NONE, Method: DESICCATOR): inactive; negative
mutagenic call (Test System: AMES SALMONELLA TYPHIMURIUM, Strain/Indicator: TA98, Metabolic Activation: NONE, Method: GAS EXPOSURE): inactive; negative
mutagenic call (Test System: AMES SALMONELLA TYPHIMURIUM, Strain/Indicator: TA98, Metabolic Activation: RAT, LIVER, S-9, AROCLOR 1254 (30%), Method: DESICCATOR): inactive; negative
mutagenic call (Test System: AMES SALMONELLA TYPHIMURIUM, Strain/Indicator: TA98, Metabolic Activation: RAT, LIVER, S-9, SODIUM PHENOBARBITAL AND 5,6-BENZOFLAVONE, Method: GAS EXPOSURE): inactive; negative
mutagenic call (Test System: AMES SALMONELLA TYPHIMURIUM, Strain/Indicator: TA100, Metabolic Activation: HAMSTER, LIVER, S-9, AROCLOR 1254 (30%), Method: DESICCATOR): active; positive
mutagenic call (Test System: AMES SALMONELLA TYPHIMURIUM, Strain/Indicator: TA100, Metabolic Activation: NONE, Method: DESICCATOR): active; positive
mutagenic call (Test System: AMES SALMONELLA TYPHIMURIUM, Strain/Indicator: TA100, Metabolic Activation: NONE, Method: GAS EXPOSURE): active; positive
mutagenic call [2]: active; positive
mutagenic call (Test System: AMES SALMONELLA TYPHIMURIUM, Strain/Indicator: TA100, Metabolic Activation: NONE, Method: STANDARD PLATE): active; positive
mutagenic call (Test System: AMES SALMONELLA TYPHIMURIUM, Strain/Indicator: TA100, Metabolic Activation: RAT, LIVER, S-9, AROCLOR 1254 (30%), Method: DESICCATOR): active; positive
mutagenic call (Test System: AMES SALMONELLA TYPHIMURIUM, Strain/Indicator: TA100, Metabolic Activation: RAT, LIVER, S-9, AROCLOR 1254, Method: PREINCUBATION): active; positive
mutagenic call (Test System: AMES SALMONELLA TYPHIMURIUM, Strain/Indicator: TA100, Metabolic Activation: RAT, LIVER, S-9, AROCLOR 1254, Method: STANDARD PLATE): active; positive
mutagenic call (Test System: AMES SALMONELLA TYPHIMURIUM, Strain/Indicator: TA100, Metabolic Activation: RAT, LIVER, S-9, SODIUM PHENOBARBITAL AND 5,6-BENZOFLAVONE, Method: GAS EXPOSURE): active; positive
mutagenic call (Test System: AMES SALMONELLA TYPHIMURIUM, Strain/Indicator: TA1535, Metabolic Activation: NONE, Method: GAS EXPOSURE): active; positive
mutagenic call (Test System: AMES SALMONELLA TYPHIMURIUM, Strain/Indicator: TA1535, Metabolic Activation: RAT, LIVER, S-9, SODIUM PHENOBARBITAL AND 5,6-BENZOFLAVONE, Method: GAS EXPOSURE): active; positive
mutagenic call (Test System: AMES SALMONELLA TYPHIMURIUM, Strain/Indicator: TA1537, Metabolic Activation: NONE, Method: GAS EXPOSURE): inactive; negative
mutagenic call (Test System: AMES SALMONELLA TYPHIMURIUM, Strain/Indicator: TA1537, Metabolic Activation: RAT, LIVER, S-9, SODIUM PHENOBARBITAL AND 5,6-BENZOFLAVONE, Method: GAS EXPOSURE): inactive; negative
mutagenic call (Test System: E. COLI, Strain/Indicator: WP2UVRA, Metabolic Activation: NONE, Method: GAS EXPOSURE): active; positive
mutagenic call (Test System: E. COLI, Strain/Indicator: WP2UVRA, Metabolic Activation: RAT, LIVER, S-9, SODIUM PHENOBARBITAL AND 5,6-BENZOFLAVONE, Method: GAS EXPOSURE): active; positive

Cc1cccc(NO)c1
mutagenic call (Test System: AMES SALMONELLA TYPHIMURIUM, Strain/Indicator: TA98, Metabolic Activation: RAT, LIVER, S-9, AROCLOR 1254, Method: PREINCUBATION): inactive; negative
mutagenic call (Test System: AMES SALMONELLA TYPHIMURIUM, Strain/Indicator: TA100, Metabolic Activation: RAT, LIVER, S-9, PCB, Method: PREINCUBATION): active; positive

C=C(C)C(=O)OCCCCCCCC(C)C
mutagenic call (Test System: AMES SALMONELLA TYPHIMURIUM, Strain/Indicator: TA97, Metabolic Activation: HAMSTER, LIVER, S-9, AROCLOR 1254 (10 OR 30%), Method: PREINCUBATION): inactive; negative
mutagenic call (Test System: AMES SALMONELLA TYPHIMURIUM, Strain/Indicator: TA97, Metabolic Activation: NONE, Method: PREINCUBATION): inactive; negative
mutagenic call (Test System: AMES SALMONELLA TYPHIMURIUM, Strain/Indicator: TA97, Metabolic Activation: RAT, LIVER, S-9, AROCLOR 1254 (10 OR 30%), Method: PREINCUBATION): inactive; negative
mutagenic call (Test System: AMES SALMONELLA TYPHIMURIUM, Strain/Indicator: TA98, Metabolic Activation: HAMSTER, LIVER, S-9, AROCLOR 1254 (10 OR 30%), Method: PREINCUBATION): inactive; negative
mutagenic call [1]: inactive; negative
mutagenic call (Test System: AMES SALMONELLA TYPHIMURIUM, Strain/Indicator: TA98, Metabolic Activation: RAT, LIVER, S-9, AROCLOR 1254 (10 OR 30%), Method: PREINCUBATION): inactive; negative
mutagenic call (Test System: AMES SALMONELLA TYPHIMURIUM, Strain/Indicator: TA100, Metabolic Activation: HAMSTER, LIVER, S-9, AROCLOR 1254 (10 OR 30%), Method: PREINCUBATION): inactive; negative
mutagenic call [2]: inactive; negative
mutagenic call (Test System: AMES SALMONELLA TYPHIMURIUM, Strain/Indicator: TA100, Metabolic Activation: RAT, LIVER, S-9, AROCLOR 1254 (10 OR 30%), Method: PREINCUBATION): inactive; negative
mutagenic call (Test System: AMES SALMONELLA TYPHIMURIUM, Strain/Indicator: TA1535, Metabolic Activation: HAMSTER, LIVER, S-9, AROCLOR 1254 (10 OR 30%), Method: PREINCUBATION): inactive; negative
mutagenic call (Test System: AMES SALMONELLA TYPHIMURIUM, Strain/Indicator: TA1535, Metabolic Activation: NONE, Method: PREINCUBATION): inactive; negative
mutagenic call (Test System: AMES SALMONELLA TYPHIMURIUM, Strain/Indicator: TA1535, Metabolic Activation: RAT, LIVER, S-9, AROCLOR 1254 (10 OR 30%), Method: PREINCUBATION): inactive; negative
